Results from the Kinase Knowledgebase extract (Sharma et al. 2016).
Where “and” joins values, the source holds several entries; their conditions need not be identical. Identical values can stand only once.

Experiments:
[1] = molecular target: EGFR (UniProt P00533)
[2] = molecular target: EGFR (Hamster) (UniProt P00533); conditions: for IC50: er22
[3] = molecular target: EGFR (UniProt P00533); remark: listed apart in the source

Chain of EGFR (P00533 whole entry, looked up): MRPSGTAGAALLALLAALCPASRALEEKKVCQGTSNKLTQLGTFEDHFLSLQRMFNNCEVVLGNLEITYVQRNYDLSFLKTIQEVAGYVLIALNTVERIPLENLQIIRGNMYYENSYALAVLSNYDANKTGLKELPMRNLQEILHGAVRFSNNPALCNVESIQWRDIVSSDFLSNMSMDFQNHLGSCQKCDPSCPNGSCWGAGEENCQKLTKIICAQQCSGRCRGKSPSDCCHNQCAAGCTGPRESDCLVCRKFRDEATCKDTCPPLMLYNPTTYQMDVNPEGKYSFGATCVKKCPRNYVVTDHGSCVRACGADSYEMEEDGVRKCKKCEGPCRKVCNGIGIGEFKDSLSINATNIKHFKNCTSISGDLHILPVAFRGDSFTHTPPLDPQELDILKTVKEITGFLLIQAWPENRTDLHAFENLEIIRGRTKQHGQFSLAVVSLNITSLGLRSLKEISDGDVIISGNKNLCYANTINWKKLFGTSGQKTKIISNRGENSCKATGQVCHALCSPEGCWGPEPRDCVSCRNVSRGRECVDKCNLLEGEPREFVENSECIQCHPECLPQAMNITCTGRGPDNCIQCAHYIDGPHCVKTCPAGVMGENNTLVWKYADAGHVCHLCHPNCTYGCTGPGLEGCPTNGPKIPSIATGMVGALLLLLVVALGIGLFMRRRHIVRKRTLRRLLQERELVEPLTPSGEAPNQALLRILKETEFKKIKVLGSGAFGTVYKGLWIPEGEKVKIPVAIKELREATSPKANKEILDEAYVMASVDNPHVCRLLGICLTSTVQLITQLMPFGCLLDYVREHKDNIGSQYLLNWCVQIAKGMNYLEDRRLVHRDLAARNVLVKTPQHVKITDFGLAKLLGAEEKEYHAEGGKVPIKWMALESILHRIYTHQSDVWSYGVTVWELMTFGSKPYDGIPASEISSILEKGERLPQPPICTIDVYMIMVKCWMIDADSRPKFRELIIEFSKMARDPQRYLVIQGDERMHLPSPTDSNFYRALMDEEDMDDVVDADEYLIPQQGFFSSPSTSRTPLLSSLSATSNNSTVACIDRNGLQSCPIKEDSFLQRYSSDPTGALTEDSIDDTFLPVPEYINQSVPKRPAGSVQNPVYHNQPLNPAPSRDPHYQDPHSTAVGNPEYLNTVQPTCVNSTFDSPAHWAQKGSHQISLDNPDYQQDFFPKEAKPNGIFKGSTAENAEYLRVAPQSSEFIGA
Chain of EGFR (Hamster) (P00533 whole entry, looked up): as above

Row | SMILES | IC50 [1] | IC50 [2] | inhibition ([2]; er22, dose or concentration not given here) [%] | IC50 [3] [nM] | inhibition ([1]; concentration not given here) [%]
1 | CC(CSCc1cc(NCc2cc(O)ccc2O)ccc1O)CC(C)(C)C (stereo not given) | 1900 nM | 5000 nM | – | – | –
2 | CC(C)c1ccccc1NC(=O)c1cc(NCc2cc(O)ccc2O)ccc1O | 120 nM | > 10000 nM | – | – | –
3 | CCCCCCCCCCCCCCCCC(=O)Oc1ccc(NCc2cc(O)ccc2O)cc1C(=O)NCc1ccccc1 | 1500 nM | – | 20 | – | –
4 | CC(=O)c1cccc(NCc2cc(O)ccc2O)c1 | 1300 nM | 12000 nM | – | – | –
5 | Oc1ccc(O)c(CNc2cccc(COCc3ccccc3)c2)c1 | 950 nM | 2500 nM | – | – | –
6 | O=C(OCCCc1ccccc1)c1cc(NCc2cc(O)ccc2O)ccc1O | – | 2250 nM | – | – | –
7 | COc1ccc(NCc2cc(O)ccc2O)cc1COCC(C)CC(C)(C)C (stereo not given) | 20000 nM | 800 nM | – | – | –
8 | O=C(c1ccccc1)c1cccc(NCc2cc(O)ccc2O)c1 | 800 nM | 5000 nM | – | – | –
9 | CC(O)c1cccc(NCc2cc(O)ccc2O)c1 (stereo not given) | 1600 nM | > 20000 nM | – | – | –
10 | CC(CNC(=O)c1cc(NCc2cc(O)ccc2O)ccc1O)CC(C)(C)C (stereo not given) | 800 nM | 6000 nM | – | – | –
11 | CC(CC(=O)c1cc(NCc2cc(O)ccc2O)ccc1O)CC(C)(C)C (stereo not given) | 370 nM | 2000 nM | – | – | –
12 | CC(NC(=O)c1cc(NCc2cc(O)ccc2O)ccc1O)c1ccccc1 (stereo not given) | 70 nM | 10000 nM | – | – | –
13 | CC(C)(C)CC(C)(C)NC(=O)c1cc(NCc2cc(O)ccc2O)ccc1O | 220 nM | 9000 nM | – | 300 | –
14 | CC(COC(=O)c1cc(NCc2cc(O)ccc2O)ccc1O)CC(C)(C)C (stereo not given) | – | – | – | ≥ 10000 | –
15 | CC(COCc1cc(NCc2cc(O)ccc2O)ccc1O)CC(C)(C)C (stereo not given) | 10000 nM | 2000 nM | – | – | –
16 | O=C(c1ccccc1)c1cc(NCc2cc(O)ccc2O)ccc1O | 300 nM | 10000 nM | – | – | –
17 | Oc1ccc(O)c(CNc2ccc(O)c(C(O)c3ccccc3)c2)c1 (stereo not given) | 1300 nM | 8200 nM | – | – | –
18 | Oc1ccc(O)c(CNc2ccc(O)c(COc3ccccc3)c2)c1 | 700 nM | > 10000 nM | – | – | –

Row | SMILES | IC50 [1] | IC50 [2] | inhibition ([2]; er22, dose or concentration not given here) [%] | IC50 [3] [nM] | inhibition ([1]; concentration not given here) [%]
19 | O=C(Cc1ccccc1)c1cc(NCc2cc(O)ccc2O)ccc1O | 60 nM | 10000 nM | – | – | –
20 | O=C(Nc1ccccc1)c1cc(NCc2cc(O)ccc2O)ccc1O | 20 nM | 10000 nM | – | 90 | –
21 | OCc1cc(NCc2cc(O)ccc2O)ccc1O | 2000 nM | 12000 nM | – | – | –
22 | CC(C)c1ccc(NC(=O)c2cc(NCc3cc(O)ccc3O)ccc2O)cc1 | 150 nM | > 10000 nM | – | – | –
23 | CC(CC(=O)c1cccc(NCc2cc(O)ccc2O)c1O)CC(C)(C)C (stereo not given) | – | – | – | – | 24
24 | Oc1ccc(O)c(CNc2ccc(O)c(COCc3ccccc3)c2)c1 | 800 nM | > 10000 nM | – | – | –
25 | CC(=O)c1cc(NCc2cc(O)ccc2O)ccc1O | 340 nM | > 10000 nM | – | – | –
26 | O=C(NCc1ccccc1)c1cc(NCc2cc(O)ccc2O)ccc1O | 20 nM and 38 nM | 6000 nM and 7000 nM | – | 40 | –
27 | O=C(CCc1ccccc1)c1c(O)cccc1NCc1cc(O)ccc1O | 5000 nM | 4000 nM | – | – | –
28 | CN(Cc1ccccc1)C(=O)c1cc(NCc2cc(O)ccc2O)ccc1O | 550 nM | > 10000 nM | – | – | –
29 | CC(COCc1cccc(NCc2cc(O)ccc2O)c1)CC(C)(C)C (stereo not given) | > 10000 nM | 2500 nM | – | – | –
30 | N#Cc1cc(NCc2cc(O)ccc2O)ccc1O | 190 nM | > 10000 nM | – | – | –
31 | Oc1ccc(O)c(CNc2ccc(O)c(C(=S)NCc3ccccc3)c2)c1 | 150 nM | > 5000 nM | – | – | –
32 | Oc1ccc(O)c(CNc2cccc(C(O)c3ccccc3)c2)c1 (stereo not given) | 1800 nM | 20000 nM | – | – | –
33 | COC(=O)[C@H](Cc1ccccc1)NC(=O)c1cc(NCc2cc(O)ccc2O)ccc1O | 540 nM | 10000 nM | – | – | –
34 | O=C(Cc1ccccc1)c1cccc(NCc2cc(O)ccc2O)c1O | 2000 nM | 4800 nM | – | – | –
35 | O=C(CCc1ccccc1)c1cc(NCc2cc(O)ccc2O)ccc1O | 160 nM | 6500 nM | – | – | –
